In patent EP1283052A1, “Pharmaceutical composition containing caspase-8 and /or caspase-9 useful for overcoming glucocorticoid- and cancer therapy-induced apoptosis of tumours” (Deutsches Krebsforschungszentrum Stiftung des öffentlichen …, priority 2001, dated 2003):

Tested on: P5 cells
Experiment: P5 xenografts in nude mice, intratumoural therapy, tumour volume
Assay type: in vivo
Conditions: Fig. 7
Method: P5 cells were injected subcutaneously in nude mice. At a tumour volume of 500 mm^3 therapy was started (day 0) and repeated at day 2 and 12 as indicated by arrows. A total volume of 100 µl in PBS was injected intratumoural containing liposomes and cisplatin (5mg/kg), or liposomes with cisplatin and a mixture of recombinant caspase-8 and -9 proteins (10 U each) and pcDNA3caspase-8 and pcDNA3caspase-9 expression vectors (10 µg each) in the absence (CIS) or presence of DEX (DEX/CIS), (DEX/CIS/CASPASES) in the drinking water (0.28 mg/L). As controls, tumour growth of xenografts from untreated mice (CO) or from mice which received liposomes and empty pcDNA3 expression vector only (CO/Liposomes) was determined. The tumour volume in each animal was measured every second day for a period of 16 days. […]
• (A) Cell culture. […] The mice were given 0.28 mg/L DEX in drinking water, and the amount of water consumed was monitored. […] The tumour volumes were measured using callipers, and calculated using, as an approximation, the formula for volume of a hemi-ellipsoid: π(width^2 x length)/6. […] Early apoptotic changes were identified by staining of cells with fluoresceinthiocyanate (FITC)-conjugated annexin V and propidium iodide (Becton Dickinson, Heidelberg, Germany) and analysed by flow cytometry (FACScan, Becton Dickinson) as described (Herr et al., EMBO J. 16 (1997), 6200-6208) • (E) Immunohistochemistry. […]

`N.N.[Cl][Pt][Cl]` [cisplatin] was tested, and the tumour growth (cisplatin 5mg/kg with liposomes intratumoural, day 0, 2 and 12, initial phase) was “initially reduced” and the tumour growth (cisplatin-treated tumours at day 10 after treatment) was “developed resistance and started to grow”.
